Assay results from US20230277508A1, “USE OF COMPOUND AS CYP2E1 INHIBITOR” (SHANGHAI LING XI BIOTECHNOLOGY DEVELOPMENT CO., LTD., priority 2020, published 2023).

Key:
[1] = tested on: LPS-induced acute lung injury (ALI) in mice; test: LPS-induced mouse lung injury; assay type: in vivo, C57BL/6N mouse
Method: Experimental method: A C57BL/6N mouse pulmonary fibrosis model was established through intratracheal instillation with 8 mg/kg LPS. An SMI0 intervention group was divided into a low-dose group and a high-dose group, which were intragastrically administered with the compound SMI0 respectively at 30 mg/kg and 90 mg/kg every day from three days before modeling until 6 h before the end of the modeling (control group, n=8; model group, n=8; and SMI0 compound high-dose group, n=8). At the end of the experiment, a body weight of mice in each group was recorded, blood was collected from the orbit, the mice were sacrificed, and lung tissues were collected and weighed. The left lungs were fixed in 4% formalin and subjected to HE staining.
Experimental method: A neutrophil level in a mouse lung tissue was evaluated through immunohistochemistry (IHC) staining, and an immunostaining-positive area percentage was quantitatively evaluated by Image-Pro Plus software. RNA of a mouse lung tissue was extracted by a kit method, and expression levels of TNF-α and IL-1β in lung tissues of mice were determined by RT-PCR.

Lewis lung cancer cells = test: Direct effect on proliferation of Lewis lung cancer cells (CCK8); assay type: cell-based; details: up to 100 μmol/L, 24 h
Method: (§1) Experimental method: Lewis lung cancer cells and A549 lung cancer cells in a logarithmic growth phase each were selected and inoculated into a 96-well plate at a concentration of 1*10^5 cells/mL, then 100 μL of a basic medium including SMI0 at different concentrations (0 μmol/L, 0.16 μmol/L, 0.8 μmol/L, 4 μmol/L, 20 μmol/L, and 100 μmol/L) was added to each well, and 24 h later, 10 μL of a CCK8 reagent was added to each well; and the cells were further cultivated for 2 h, and an absorbance OD value of each well was determined at 450 nm by a microplate reader. 3 replicates were set for each well, and an average was taken. The proliferation activity was calculated based on the OD value.

A549 lung cancer cells = test: Direct effect on proliferation of A549 lung cancer cells (CCK8); assay type: cell-based; details: up to 100 μmol/L, 24 h
Method: as §1

[2] = tested on: U251 cells / M2 microglial cells; test: U251 cells co-cultivated with M2 microglial cells; assay type: cell-based, human; details: SMI0 50 μmol/L vs M2 microglial cell co-cultivation group, P<0.001
Method: Experimental method: 10 1-2 d newborn C57BL/6 WT mice and 6 CYP2E1^−/− mice were taken, primary microglial cells and astrocytes were collected and inoculated into 6-well plates, and 24 h later, culture supernatants were taken and co-cultivated with glioma cells. Experimental groups: control group; M2 model group; high-concentration, medium-concentration, and low-concentration SMI0 (50 μmol/L, 12.5 μmol/L, and 3.1 μmol/L) groups; and CYP2E1 gene-knockout group. 24 h later, supernatants were discarded; and […] and IL-13 each were added at 20 ng/mL to induce the transformation of microglial cells into the M2 type in the M2 model group and the high-concentration, medium-concentration, and low-concentration SMI0 groups, and different concentrations of SMI0 (50 μmol/L, 12.5 μmol/L, and 3.1 μmol/L) were also added in the intervention groups. The proliferation of glioma cells was determined by a CCK8 method, and an apoptosis proportion was determined by an Annexin V-FITC-PI apoptosis staining kit.

[3] = tested on: collagen-induced rheumatoid arthritis in rats; test: Collagen-induced rat rheumatoid arthritis model; assay type: in vivo, SD rat; details: SMI0 75, 37.5 and 18.75 mg/kg ig once daily, day 21, vs model group
Method: Experimental method: A collagen emulsion was used to construct an SD rat rheumatoid arthritis model. 50 rats successfully modeled were randomly divided into five groups: model group (normal saline (NS), 0.5 mL/kg, i.g.); positive control group (celecoxib, 5 mg/kg, i.g.); SMI0 low-dose group (18.75 mg/kg, i.g.); SMI0 medium-dose group (37.5 mg/kg, i.g.); and SMI0 high-dose group (75 mg/kg, i.g.). The rats each were administered once every day starting from the first day after successful modeling. A thickness of each of the left and right hindfeet and the left and right forefeet of rats was measured every day by a vernier caliper, and a volume of each of the left and right hindfeet of rats was measured by a rat foot swelling measuring instrument (which was measured every 12 h in the first 3 days). A foot swelling rate of each rat was calculated according to a change of a hindfoot volume of the rat relative to a hindfoot volume of the rat before the modeling at each time point, and a difference in foot swelling rate between groups of rats was analyzed. After the successful modeling, blood was collected from the orbit on day 7; rats were sacrificed on day 20, blood was collected, and serum was isolated; and tissues such as ankles, toe joints, spleens, and livers were collected. […]

[4] = tested on: cognitive dysfunction in STZ-induced AD rat model; test: STZ-induced AD rat model, Morris water maze; assay type: in vivo, SD rat; details: for Number of crossing platform / Time spent in the platform quadrant: MWM spatial exploration; for Number of crossing platform / Time spent in the platform quadrant / Incubation period Day 1 / Incubation period Day 2 / Incubation period Day 3 / Incubation period Day 4 / Incubation period Day 5 / Incubation period Day 6: n=15; for Incubation period Day 1 / Incubation period Day 2 / Incubation period Day 3 / Incubation period Day 4 / Incubation period Day 5 / Incubation period Day 6: MWM
Method: Experimental method: A male SD rat AD model was constructed through bilateral intracerebroventricular injection of STZ, where STZ was injected at 3 mg/kg on day 1 and STZ was injected at 1.5 mg/kg on day 3. STZ was injected into bilateral cerebral ventricles (0.9 mm posterior to the anterior fontanelle, 1.5 mm at the left or right of the sagittal suture, and below the brain surface and 3.8 mm to the skull) by a brain stereotaxic instrument. The sham-operated group was injected with a same volume of a control solvent according to same operations. The low-dose and high-dose prevention and treatment groups were intragastrically administered with the compound SMI0 respectively at 10 mg/kg and 30 mg/kg starting from day 11 after modeling, and the administration was conducted consecutively for 21 d. On day 14 of the continuous administration (that is, on […] of modeling), the Morris water maze (MWM) was used to conduct spatial positioning navigation training consecutively for 6 d, and a spatial exploration experiment was conducted 24 h after the spatial positioning navigation training was completed (15 rats in each group).

[5] = RT-PCR, SMI0 high-dose group vs model group, P<0.05

Structure (SMILES): CC(=O)c1scnc1C [SMI0]
- expression level of IL-1β in the lung tissue [1, 5]: significantly reduced
- expression level of TNF-α in the lung tissue [1, 5]: significantly reduced
- lung injury score ([1]; SMI0 administration group vs model group): significant reduced
- MPO immunostaining-positive area percentage in lung tissue ([1]; SMI0 high-dose group vs model group, P<0.05): significantly reduced
- lung index ([1]; both SMI0 low-dose (30 mg/kg) and high-dose (90 mg/kg) groups, ig daily, vs model group, P<0.01): significantly reduced
- effect on the proliferation of Lewis lung cancer cells (Lewis lung cancer cells): no significant inhibitory effect
- effect on the proliferation of A549 lung cancer cells (A549 lung cancer cells): no significant inhibitory effect
- proliferation of U251 cells [2]: significantly inhibited
- foot swelling degrees [3]: significantly reduced
- Number of crossing platform ([4]; SMI0 10 mg/kg ig): 5.1
- Time spent in the platform quadrant ([4]; SMI0 10 mg/kg ig): 29.4%
- Number of crossing platform ([4]; SMI0 30 mg/kg ig): 8.2
- Time spent in the platform quadrant ([4]; SMI0 30 mg/kg ig): 39.3%
- Incubation period Day 1 ([4]; SMI0 10 mg/kg ig for 21 d): 95.7 s
- Incubation period Day 2 ([4]; SMI0 10 mg/kg ig for 21 d): 61.1 s
- Incubation period Day 3 ([4]; SMI0 10 mg/kg ig for 21 d): 39.5 s
- Incubation period Day 4 ([4]; SMI0 10 mg/kg ig for 21 d): 33.2 s
- Incubation period Day 5 ([4]; SMI0 10 mg/kg ig for 21 d): 23.1 s
- Incubation period Day 6 ([4]; SMI0 10 mg/kg ig for 21 d): 18.5 s
- Incubation period Day 1 ([4]; SMI0 30 mg/kg ig for 21 d): 94.6 s
- Incubation period Day 2 ([4]; SMI0 30 mg/kg ig for 21 d): 52.7 s
- Incubation period Day 3 ([4]; SMI0 30 mg/kg ig for 21 d): 35.9 s
- Incubation period Day 4 ([4]; SMI0 30 mg/kg ig for 21 d): 25.2 s
- Incubation period Day 5 ([4]; SMI0 30 mg/kg ig for 21 d): 20.0 s
- Incubation period Day 6 ([4]; SMI0 30 mg/kg ig for 21 d): 18.6 s
- improvement rate of ICV-STZ-induced cognitive dysfunction ([4]; SMI0 high-dose group (30 mg/kg), vs model group, significant): 46.7%
- improvement rate of ICV-STZ-induced cognitive dysfunction ([4]; SMI0 low-dose group (10 mg/kg), without a significant statistical difference): 32.6%
